Assay [1] concerns mice with established Type II collagen arthritis. Put plainly: 11 day male DBA/1J mouse established Type II collagen arthritis. The format is in vivo. Particulars: for clinical symptoms of arthritis (clinical scoring in the paws) / bone loss (histologic scoring) / pannus formation (histologic scoring): mice n=16; for clinical symptoms of arthritis (clinical scoring in the paws): vs arthritic control, FIG. 2a; for bone loss (histologic scoring) / pannus formation (histologic scoring): FIG. 2b. How it is done: Male DBA/1J mice (7-9 weeks old on arrival; at least 7 weeks old at time of first immunization) were housed 5 per cage and were acclimated for enough days after arrival such that all animals were at least 7 weeks old at start of study.
Mice were anesthetized with Isoflurane and given intradermal collagen (2 mg/ml) injections at the base of the tail in a volume of 150 μl (D0 and D21). On days 21-35, onset of arthritis occurred and mice were randomized into treatment groups. Randomization into each group was done after swelling was obviously established in at least one paw, and attempts were made to assure approximately equal mean scores across the groups at time of enrollment. Treatment was initiated after enrollment and continued every day for a total of 10 days as outlined in Table 3. During the ten days of treatment, clinical scores were given for each of the paws (right front, left front, right rear, and left rear) according to the scoring methods provided below.
• 0 normal • 1 1 hind or fore paw joint affected or minimal diffuse erythema and swelling • 2 2 hind or fore paw joints affected or mild diffuse erythema and swelling • 3 3 hind or fore paw joints affected or moderate diffuse erythema and swelling • 4 Marked diffuse erythema and swelling, or 4 digit joints affected • 5 Severe diffuse erythema and severe swelling entire paw, unable to flex digits
All dose solutions were prepared to deliver 10 ml/kg (0.3 ml/30 g mouse). On day 11 of arthritis, animals were euthanized, and both fore and hind limbs with knees were removed, placed into formalin and then processed for microscopy. Following 1-2 days in fixative and then 4-5 days in decalcifier, the joints were processed, embedded, sectioned and stained with toluidine blue. (Only fore and hind paws and knees were initially processed—6 joints/mouse.)
When scoring paws or ankles from mice with lesions of type II collagen arthritis, severity of changes as well as number of individual joints affected must be considered. When only 1-3 joints of the paws or ankles out of a possibility of numerous metacarpal/metatarsal/digit or tarsal/tibiotarsal joints were affected, an arbitrary assignment of a maximum score of 1, 2 or 3 from the scoring scale below was given depending on severity of changes. If more than 3 joints were involved, the full scoring scale below was applied only to the most severely affected/majority of joints.
• 0 Normal • 1 Minimal infiltration of pannus in cartilage and subchondral bone • 2 Mild infiltration with marginal zone destruction of hard tissue in affected joints • 3 Moderate infiltration with moderate hard tissue destruction in affected joints • 4 Marked infiltration with marked destruction of joint architecture, most joints • 5 Severe infiltration associated with total or near total destruction of joint architecture, affects all joints
• 0 Normal • 1 Minimal—small areas of resorption, not readily apparent on low magnification, rare osteoclasts in affected joints • 2 Mild—more numerous areas of resorption, not readily apparent on low magnification, osteoclasts more numerous in affected joints • 3 Moderate—obvious resorption of medullary trabecular and cortical bone without full thickness defects in cortex, loss of some medullary trabeculae, lesion apparent on low magnification, osteoclasts more numerous in affected joints • 4 Marked—Full thickness defects in cortical bone, often with distortion of profile of remaining cortical surface, marked loss of medullary bone, numerous osteoclasts, affects most joints • 5 Severe—Full thickness defects in cortical bone and destruction of joint architecture of all joints
Histologic parameters (mean ±SE) for each group were analyzed for differences using the Chi Square Test and one way ANOVA. Significance was set at p≦0.05.

The subject of assay [2] is rats with CIA. Kind of assay: Rat collagen-induced arthritis (CIA), knee histopathology scoring. The format is in vivo. The following applies: rats n=9. How it is done: Female Lewis rats were anesthetized with 3-5% isoflurane and arthritis was induced by intradermal injection of 0.3 mL (100 μL at three different sites) of an emulsion containing 1.5 mg/mL of type II bovine collagen, CII (Elastin Products Inc., Cat# CM276), in incomplete Freund's adjuvant (IFA) at the base of the tail on day 0 and 6. Control rats were injected with an equal amount of IFA only.
The volume of both hind paws were measured using a water displacement plethysmometer (Ugo Basile, Biological Research Apparatus, Italy), and the onset of arthritis was indicated by increased paw volume, which appeared approximately on day 11 post injection. Both paw volumes and body weights were measured throughout the study every 2-3 days. Nineteen to twenty-one days after CII injection, the rats were euthanized with CO2. Blood was collected by cardiac puncture and serum was saved.
Bovine Type II collagen for tissue culture was purchased from Chondrex (Cat# 2022) and was reconstituted according to the manufacturer's instructions. All data were processed and analyzed by t-test using GraphPad Prism software.
After the animals were euthanized, both hind paws and knees were removed, hind paws were weighed, and the paws and knees were placed in formalin. Following 1-2 days in fixative and 4-5 days in decalcifier, the ankle joints were cut in half longitudinally, and the knees were cut in half in the frontal plane. The joints were then processed, embedded, sectioned and stained with toluidine blue. Collagen arthritic ankles and knees were given scores of 0-5 for inflammation, pannus formation and bone resorption according to the following criteria:
• 0 Normal • 1 Minimal infiltration of inflammatory cells in periarticular tissue • 2 Mild infiltration • 3 Moderate infiltration with moderate edema • 4 Marked infiltration with marked edema • 5 Severe infiltration with severe edema
• 0 Normal • 1 Minimal infiltration of pannus in cartilage and subchondral bone • 2 Mild infiltration (extends over up to ¼ of surface or subchondral area of tibia or femur) • 3 Moderate infiltration (extends over >¼ but <½ of surface or subchondral area of tibia or femur) • 4 Marked infiltration (extends over ½ to ¾ of tibial or femoral surface) • 5 Severe infiltration (covers >¾ of surface)
• 0 Normal • 1 Minimal: minimal to mild loss of toluidine blue staining with no obvious chondrocyte loss or collagen disruption • 2 Mild: mild loss of toluidine blue staining with focal mild (superficial) chondrocyte loss and/or collagen disruption • 3 Moderate: moderate loss of toluidine blue staining with multifocal to diffuse moderate (depth to middle zone) chondrocyte loss and/or collagen disruption • 4 Marked: marked loss of toluidine blue staining with multifocal to diffuse marked (depth to deep zone) chondrocyte loss and/or collagen disruption • 5 Severe: severe diffuse loss of toluidine blue staining with multifocal severe (depth to tide mark) chondrocyte loss and/or collagen disruption on both femur and tibia
• 0 Normal • 1 Minimal: small areas of resorption, not readily apparent on low magnification, rare osteoclasts • 2 Mild: more numerous areas of resorption, definite loss of subchondral bone involving ¼ of tibial or femoral surface (medial or lateral) • 3 Moderate: obvious resorption of subchondral bone involving >¼ but <½ of tibial or femoral surface (medial or lateral) • 4 Marked: obvious resorption of subchondral bone involving ≧½ but <¾ of tibial or femoral surface (medial or lateral) • 5 Severe: distortion of entire joint due to destruction involving >¾ of tibial or femoral surface (medial or lateral)

Setting [3] is: 0.5 μg/kg once daily i.v., vs vehicle control.
[4] abbreviates: 5.0 μg/kg once daily i.v., vs vehicle control.
The mark [5] stands for this setting: 0.3 mg/kg twice daily i.v., days 8 to 19, FIG. 3.

For `CC[C@@H](O)/C=C/C=C\C[C@@H](O)/C=C/C=C/C=C\[C@@H](O)CCCC(=O)O` [Compound X], the “score of bone damage (histologic scoring in joints)” value in assay [1] (mice n=15, 5 μg/kg twice daily iv, vs vehicle control, FIG. 1) was “significant decrease”. Further, in assay [1] (0.5 μg/kg once daily i.v.), the “clinical symptoms of arthritis (clinical scoring in the paws)” value was “inhibited”. In assay [1] (setting [3]), the “bone loss (histologic scoring)” value is recorded as “reduced” and the “pannus formation (histologic scoring)” value was “reduced”. Moreover, the “clinical symptoms of arthritis (clinical scoring in the paws)” value in assay [1] (5.0 μg/kg once daily i.v.) is reported as “inhibited”. For the same compound, in assay [1] (setting [4]), the “bone loss (histologic scoring)” value is “reduced” and the “pannus formation (histologic scoring)” value is “reduced”. In assay [2] (setting [5]), the “bone resorption (knee histopathology scoring)” value is “significant reduction”, the “cartilage damage (knee histopathology scoring)” value is “significant reduction”, the “inflammation (knee histopathology scoring)” value was “significant reduction” and the “pannus (knee histopathology scoring)” value is given as “significant reduction”. Besides, the knee histopathology scores result in assay [2] (therapeutic dosing, FIG. 3) is “significantly reduced”. For the same compound, in assay [2] (therapeutic dosing, FIG. 4), the bone resorption entry was “protected” and the joint damage result is given as “protected”.

The values above are taken from patent US20080161274A1, “Compounds and methods for inhibition of bone loss” (Resolvyx Pharmaceuticals, Inc., priority 2006, published 2008).
